Results on 15 compounds are retold here after patent US20220127297A1, “Novel Antibacterial 3"-Derivatives Of 4,6-Disubstituted 2,5-Dideoxystreptamine Aminoglycoside Antibiotics” (AGILeBiotics B.V., priority 2018, published 2022).

Test [1] has as its system E. coli ATCC25922 strain. The experiment in a line: MIC 50, broth micro-dilution, wild-type Escherichia coli. It counts as cell-based. Conditions: MH2, 18 h. The gist of the method: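 Two-fold dilution series (final 64 μM–31.3 nM) tested in triplicate in Mueller Hinton 2 broth against E. coli ATCC 25922 and plasmid-bearing derivatives, inoculum OD600 0.1. After 18 h at 37° C with shaking, averaged OD600 gave growth curves; MIC50 taken where growth fell to half-maximal.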
(In broth dilution the organism is exposed to a series of concentrations in liquid medium.)

Test [2] relates to A. baumannii DSM 105126. The experiment in a line: MIC 50, broth micro-dilution, DSM strains. It counts as cell-based, Acinetobacter baumannii. An excerpt:
3.2 Against Selected Bacteria of the ESKAPE Panel and Enterococcus faecalis (DSM Strains)
Tested reference compounds. Amikacin sulfate (Cat. No. 01693, Chem-Impex), Gentamicin sulfate (Cat. No. G4918, Sigma Aldrich).
Microbial strains. Enterococcus faecalis DSM 2570, Klebsiella pneumoniae DSM 26371, Acinetobacter baumannii DSM 105126, Enterobacter cloacae 3MRGN (clinical bronchial aspirate isolate).
Culture media and equipment. BBL™ Mueller Hinton Broth 2 (Lot. BCBW1143, Cat. No. 70192, Sigma); Trypcase Soy Blood-agar plates (Cat. No. 43001, Biomérieux); Cryoinstant (contains 15% glycerol; Cat. No. 822070ZA, VWR International); GasPak™ EZ Standard Incubation Container (Cat. No. 260671, Becton Dickinson); GasPak™ EZ Campy Container System Sachets (Cat. No. 260680, Becton Dickinson); 96-well deep well plate, 1 mL (Cat. No. 0030506.200, Eppendorf); Plate lid (Cat. No. 0030131.525, Eppendorf); 96-well plate, F-bottom (Cat. No. 260860, Nunc); Incubator (Sartorius Certomat BS-1); Laminar flow (Heraeus HS12); UV/VIS meter (Perkin Elmer Lambda Bio+); Platereader (Tecan Infinite M200 Pro).
Compound preparation. Compounds were prepared in MH2 media at a concentration of 5 mM and stored at 4° C. For testing, solutions of 128 μM were prepared in MH2, for tests against E. faecalis a solution of 512 μM was prepared. Out of these working solutions, 400 μL was transferred to wells in the first column of 96-well deep well plates. Each compound was transferred in triplicate. Plates were previously filled with 200 μL of MH2 media in all wells except for the wells in the first column. After compound and antibiotic addition, the compounds were serial two-fold diluted by transferring 200 μL from the first to the second column, then from the second to the third column and so on. Finally, 200 μL was removed from the last column.
Inoculum preparation. Microorganisms used were all revived from 15% glycerol storage in Croinstant tubes at −28° C. by plating them on blood agar plates. A. baumanni, and E. cloacae were grown aerobically at 37° C., E. faecalis was grown microaerophilically at 37° C., and K. pneumoniae was grown aerobically at 37° C. Plates were stored at 4° C. for up to two weeks, after which new plates were prepared from −28° C. A single colony was inoculated in MH2 media and grown at 37° C. and 200 rpm to an optical density (measured by UV/Vis spectroscopy) of 0.6-0.8 at 600 nm. Out of these suspensions, actual inoculums were prepared by diluting them to an optical density of 0.1 in MH2 media. From these inoculums, 200 μL was transferred to each well, resulting in a final compound concentration range of 64 μM-31.3 nM for, K. pneumoniae, A. baumanni, and E. cloacae, and 256 μM-125 nM for E. faecalis. Plates inoculated with E. faecalis were placed inside a GasPak™ Container System with GasPak™ Campy Container System sachets. All plates were incubated at 200 rpm for 18 h under the microorganism culturing conditions mentioned above.
MIC determination. After 18 h of growth, 200 μL was transferred to a 96-well F-bottom plate. The optical density was determined by a plate reader at 600 nm, with 10 s shaking before reading. Triplicate measurements were averaged, and a growth curve was plotted in Excel. The first column in which the growth reached half the value of maximum growth was determined as the MIC50 value for that particular compound.
MIC50. The MIC50 of a compound was assigned at which the bacterial growth reached half the value of maximum growth.

The mark [3] stands for this setting: Escherichia coli, ATCC25922, 18 h.
Where [4] appears, read: Acinetobacter baumannii, DSM105126, read-out: MIC 50.

Values after ≈ are worked out from the molar mass of the structure shown. Where two headings read alike, the source gives them in different places.

As for `NCC[C@H](O)C(=O)N[C@@H]1CC(N)[C@@H](O[C@H]2OC(CN)[C@@H](O)CC2N)[C@H](O)C1OC1O[C@H](CO)[C@@H](O)C(N)[C@H]1O` (stereo partly drawn) [ABX5004, Tobra-AHB], the “MIC50” value in test [1] amounted to 2 µM (≈ 1.14 µg/mL); in test [2], 0.5 µM (≈ 0.284 µg/mL).
As to `N=C(NC[C@@H]1CNCCO1)NC1[C@@H](O)C(OC2[C@@H](F)[C@H](O[C@H]3OC(CN)[C@@H](O)CC3N)C(N)C[C@H]2NC(=O)[C@@H](O)CCN)O[C@H](CO)[C@H]1O` (stereo partly drawn) [ABX5040, Tobra-AHB-F-Gua (S) morpholin-2-yl methyl], the MIC50 was 0.5 µM (≈ 0.356 µg/mL) in test [1] (setting [3]) and 0.0625 to 0.125 µM (≈ 0.0445 to 0.089 µg/mL) in test [2] (setting [4]).
As for `NCC[C@H](O)C(=O)N[C@@H]1C[C@H](N)[C@@H](O[C@H]2O[C@H](CN)[C@@H](O)[C@H](O)[C@H]2O)[C@H](O)[C@H]1O[C@H]1O[C@H](CO)[C@@H](O)[C@H](N)[C@H]1O` [Amikacin, amikacin, reference compound], the MIC50 worked out at 2 µM (≈ 1.17 µg/mL) in test [1] (Escherichia coli, read-out: MIC 50) and 0.5 µM (≈ 0.293 µg/mL) in test [2] (setting [4]).
For the compound `NCC[C@H](O)C(=O)N[C@@H]1CC(N)[C@@H](O[C@H]2OC(CN)[C@@H](O)[C@@H](O)C2N)[C@H](F)C1OC1O[C@H](CO)[C@@H](O)C(N)[C@H]1O` (stereo partly drawn) [ABX4003, 3′Epi-KanaB-AHB-F], the “MIC50” value in test [1] is 4 to 8 µM; in test [2], 0.5 µM (≈ 0.293 µg/mL).
As to `N=C(NC[C@H]1CCNC1)NC1[C@@H](O)C(OC2[C@@H](F)[C@H](O[C@H]3OC(CN)[C@@H](O)CC3N)C(N)C[C@H]2NC(=O)[C@@H](O)CCN)O[C@H](CO)[C@H]1O` (stereo partly drawn) [ABX5042, Tobra-AHB-F-Gua (S) pyrrolidine-3-ylmethyl], the MIC50 in test [1] (setting [3]) was 0.25 µM (≈ 0.174 µg/mL); in test [2] (setting [4]), 0.0625 µM (≈ 0.0435 µg/mL).
For `N=C(NCCCO)NC1[C@@H](O)C(OC2[C@@H](F)[C@H](O[C@H]3OC(CN)[C@@H](O)CC3N)C(N)C[C@H]2NC(=O)[C@@H](O)CCN)O[C@H](CO)[C@H]1O` (stereo partly drawn) [ABX5041, Tobra-AHB-F-Gua 3-hydroxy-propyl], in that order: 0.5 µM (≈ 0.335 µg/mL) and 0.25 µM (≈ 0.168 µg/mL).
On to `N=C(N)NC1[C@@H](O)C(OC2[C@@H](F)[C@H](O[C@H]3OC(CN)[C@@H](O)[C@H](O)C3O)C(N)C[C@H]2NC(=O)[C@@H](O)CCN)O[C@H](CO)[C@H]1O` (stereo partly drawn) [ABX3003, 3′epi-KanaA-AHB-F-Gua], for which the MIC50 is 2 µM (≈ 1.26 µg/mL) in test [1] (setting [3]) and 0.0625 to 0.125 µM (≈ 0.0394 to 0.0787 µg/mL) in test [2] (setting [4]).
With `N=C(N)N[C@@H]1[C@@H](O)[C@@H](O[C@@H]2[C@@H](O)[C@H](O[C@H]3O[C@H](CN)[C@@H](O)[C@@H](O)[C@H]3N)[C@@H](N)C[C@H]2NC(=O)[C@@H](O)CCN)O[C@H](CO)[C@H]1O` [ABX4005, 3′Epi-KanaB-AHB-Gua], the “MIC50” value in test [1] came to 4 µM (≈ 2.51 µg/mL); in test [2], 0.5 µM (≈ 0.313 µg/mL).
In the case of `N=C(N)NC1[C@@H](O)C(OC2[C@@H](F)[C@H](O[C@H]3OC(CNCCO)[C@@H](O)CC3N)C(N)C[C@H]2NC(=O)[C@@H](O)CCN)O[C@H](CO)[C@H]1O` (stereo partly drawn) [ABX5045, 6N-2-hydroxy-ethyl-Tobra-AHB-F-Gua], the values for the MIC50 in test [1] (setting [3]) and in test [2] (setting [4]) were 1 µM (≈ 0.657 µg/mL) and 0.5 µM (≈ 0.328 µg/mL), respectively.
In the case of `N=C(NCCCN)NC1[C@@H](O)C(OC2[C@@H](F)[C@H](O[C@H]3OC(CN)[C@@H](O)CC3N)C(N)C[C@H]2NC(=O)[C@@H](O)CCN)O[C@H](CO)[C@H]1O` (stereo partly drawn) [ABX5030, Tobra-AHB-F-Gua-3-amino-propyl], the MIC50 in test [1] (setting [3]) is 0.25 µM (≈ 0.167 µg/mL); in test [2] (setting [4]), 0.0312 to 0.0625 µM (≈ 0.0209 to 0.0419 µg/mL).
For `CNCCNC(=N)NC1[C@@H](O)C(OC2[C@@H](F)[C@H](O[C@H]3OC(CN)[C@@H](O)CC3N)C(N)C[C@H]2NC(=O)[C@@H](O)CCN)O[C@H](CO)[C@H]1O` (stereo partly drawn) [ABX5038, Tobra-AHB-F-Gua 2-(methylamino)ethyl] the same measures were 0.25 µM (≈ 0.167 µg/mL) and 0.0625 to 0.125 µM (≈ 0.0419 to 0.0837 µg/mL).
Take `N=C(NCC1CCOC1)NC1[C@@H](O)C(OC2[C@@H](F)[C@H](O[C@H]3OC(CN)[C@@H](O)CC3N)C(N)C[C@H]2NC(=O)[C@@H](O)CCN)O[C@H](CO)[C@H]1O` (stereo partly drawn) [ABX5051, Tobra-AHB-F-Gua tetrahydrofuran-3-yl methyl]: the MIC50 in test [1] (setting [3]) and in test [2] (setting [4]) was 0.5 µM (≈ 0.348 µg/mL) each time.
In the case of `C[C@@H](N)CCNC(=N)NC1[C@@H](O)C(OC2[C@@H](F)[C@H](O[C@H]3OC(CN)[C@@H](O)CC3N)C(N)C[C@H]2NC(=O)[C@@H](O)CCN)O[C@H](CO)[C@H]1O` (stereo partly drawn) [ABX5047, Tobra-AHB-F-Gua (R) 3-amino-butyl], the MIC50 in test [1] (setting [3]) is 0.25 µM (≈ 0.171 µg/mL); in test [2] (setting [4]), 0.125 µM (≈ 0.0855 µg/mL).
With `CC(C)(C)CCNC(=N)NC1[C@@H](O)C(OC2[C@@H](F)[C@H](O[C@H]3OC(CN)[C@@H](O)CC3N)C(N)C[C@H]2NC(=O)[C@@H](O)CCN)O[C@H](CO)[C@H]1O` (stereo partly drawn) [ABX5025, Tobra-AHB-F-Gua 2-tBu-ethyl], the MIC50 was 0.25 to 0.5 µM (≈ 0.174 to 0.348 µg/mL) in test [1] (setting [3]) and 0.25 µM (≈ 0.174 µg/mL) in test [2] (setting [4]).
Turning to `N=C(NCCN)NC1C(O)[C@@H](CO)OC(OC2C(F)[C@H](O[C@H]3OC(CN)[C@@H](O)CC3N)C(N)C[C@H]2NC(=O)[C@@H](O)CCN)[C@@H]1O` (stereo partly drawn) [ABX5020, Tobra-AHB-F-Gua-2-amino-ethyl], the MIC50 was 0.5 µM (≈ 0.328 µg/mL) in test [1] (setting [3]) and 0.0625 to 0.125 µM (≈ 0.041 to 0.082 µg/mL) in test [2] (setting [4]).
